Reference: publication PMC3439875 (Nucleic Acids Research, 2012)

Target: variola topoisomerase (Variola virus, UniProt P32989)
Assay type: biochemical

Sequence of variola topoisomerase (P32989 whole entry, looked up): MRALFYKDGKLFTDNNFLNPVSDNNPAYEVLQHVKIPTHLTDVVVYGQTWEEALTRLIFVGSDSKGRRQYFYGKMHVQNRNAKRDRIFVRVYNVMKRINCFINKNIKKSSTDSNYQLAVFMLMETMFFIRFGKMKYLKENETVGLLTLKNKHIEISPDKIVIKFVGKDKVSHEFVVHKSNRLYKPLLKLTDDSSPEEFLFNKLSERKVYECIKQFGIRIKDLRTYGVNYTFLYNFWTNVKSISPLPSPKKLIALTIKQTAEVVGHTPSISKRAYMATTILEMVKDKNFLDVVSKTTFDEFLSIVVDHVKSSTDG

## CCOC(=O)c1c(O)c2cc(-c3cccc(OC)n3)cnc2n(O)c1=O [Compound 7]
  Inhibition of variola topoisomerase activity: no inhibitory activity
